Measurements published in ChEMBL document CHEMBL1201862, “PubChem BioAssay data set” (2004).
“And” between values parts separate entries of the source, which are not always exact repeats. Equal values may be shown once.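 Dose response: 5 concentrations. Exposure: 48 h. Format: 96-well plates. Endpoint: linear interpolation; highest concentration if not reached. GI50 is the concentration that inhibits growth by half.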 The source made the active and inactive calls. Rule as the data show it: active = GI50 up to about 1.1 µM and inactive = higher.

Legend:
Assay in all cases: NCI anticancer screen, dose series, 48 h
HCT-116 = tested on: HCT-116
NCI-H23 = tested on: NCI-H23
A498 = tested on: A498
NCI/ADR-RES = tested on: NCI/ADR-RES
EKVX = tested on: EKVX
TK-10 = tested on: TK-10
NCI-H522 = tested on: NCI-H522
SF-539 = tested on: SF-539
ACHN = tested on: ACHN
SK-MEL-5 = tested on: SK-MEL-5
Malme-3M = tested on: Malme-3M
UO-31 = tested on: UO-31
K562 = tested on: K562
SR = tested on: SR
SK-MEL-28 = tested on: SK-MEL-28
U-251 = tested on: U-251
OVCAR-5 = tested on: OVCAR-5
RPMI-8226 = tested on: RPMI-8226
OVCAR-4 = tested on: OVCAR-4
HL-60 = tested on: HL-60

Structure (SMILES)	GI50 (HCT-116)	GI50 (NCI-H23)	GI50 (A498)	GI50 (NCI/ADR-RES)	GI50 (EKVX)	GI50 (TK-10)	GI50 (NCI-H522)	GI50 (SF-539)	GI50 (ACHN)	GI50 (SK-MEL-5)	GI50 (Malme-3M)	GI50 (UO-31)	GI50 (K562)	GI50 (SR)	GI50 (SK-MEL-28)	GI50 (U-251)	GI50 (OVCAR-5)	GI50 (RPMI-8226)	GI50 (OVCAR-4)	GI50 (HL-60)
COc1ccc2c(c1)C(=O)CCc1cc(OC)c(OC)c(OC)c1-2	0.0506 µM (active)	0.024 µM (active)	0.0504 µM (active)	0.0214 µM (active)	0.045 µM (active)	15.1 µM (inactive)	< 0.01 µM (active)	< 0.01 µM (active)	0.0863 µM (active)	0.0521 µM (active)	0.0304 µM (active)	0.0631 µM (active)	0.0366 µM (active)	0.0354 µM (active)	0.0818 µM (active)	0.0285 µM (active)	0.0783 µM (active)	0.0631 µM (active)	0.0582 µM (active)	–
OCCSCC(O)Cn1cnc2c(O)nc(Nc3ccccc3)nc21 (configuration not stated)	> 100 µM (inactive)	> 100 µM (inactive)	> 100 µM (inactive)	> 100 µM (inactive)	> 100 µM (inactive)	> 100 µM (inactive)	> 100 µM (inactive)	> 100 µM (inactive)	> 100 µM (inactive)	> 100 µM (inactive)	> 100 µM (inactive)	–	–	> 100 µM (inactive)	> 100 µM (inactive)	> 100 µM (inactive)	> 100 µM (inactive)	> 100 µM (inactive)	> 100 µM (inactive)	> 100 µM (inactive)
Cc1cc(Oc2cnc(=O)[nH]c2)cs1	> 100 µM (inactive)	> 100 µM (inactive)	> 100 µM (inactive)	> 100 µM (inactive)	> 100 µM (inactive)	> 100 µM (inactive)	> 100 µM (inactive)	> 100 µM (inactive)	> 100 µM (inactive)	> 100 µM (inactive)	> 100 µM (inactive)	> 100 µM (inactive)	> 100 µM (inactive)	> 100 µM (inactive)	> 100 µM (inactive)	> 100 µM (inactive)	> 100 µM (inactive)	> 100 µM (inactive)	–	> 100 µM (inactive)
N#Cc1cc(C#N)c(N)nc1N	> 100 µM (inactive)	> 100 µM (inactive)	> 100 µM (inactive)	> 100 µM (inactive)	> 100 µM (inactive)	> 100 µM (inactive)	> 100 µM (inactive)	> 100 µM (inactive)	> 100 µM (inactive)	> 100 µM (inactive)	> 100 µM (inactive)	> 100 µM (inactive)	> 100 µM (inactive)	19.1 µM (inactive)	–	> 100 µM (inactive)	> 100 µM (inactive)	> 100 µM (inactive)	> 100 µM (inactive)	> 100 µM (inactive)
CC(=O)Nc1ccc2cc(C)c(O)nc2n1	> 100 µM (inactive)	> 100 µM (inactive)	> 100 µM (inactive)	8.09 µM (inactive)	> 100 µM (inactive)	> 100 µM (inactive)	> 100 µM (inactive)	> 100 µM (inactive)	> 100 µM (inactive)	> 100 µM (inactive)	> 100 µM (inactive)	> 100 µM (inactive)	> 100 µM (inactive)	> 100 µM (inactive)	> 100 µM (inactive)	> 100 µM (inactive)	> 100 µM (inactive)	> 100 µM (inactive)	> 100 µM (inactive)	> 100 µM (inactive)
O=C(O)C1CCCN1Cc1ccc2c(c1)OCO2 (configuration not stated)	> 100 µM (inactive)	> 100 µM (inactive)	> 100 µM (inactive)	> 100 µM (inactive)	> 100 µM (inactive)	> 100 µM (inactive)	> 100 µM (inactive)	> 100 µM (inactive)	> 100 µM (inactive)	> 100 µM (inactive)	> 100 µM (inactive)	> 100 µM (inactive)	> 100 µM (inactive)	14.5 µM (inactive)	> 100 µM (inactive)	> 100 µM (inactive)	> 100 µM (inactive)	> 100 µM (inactive)	> 100 µM (inactive)	–
CS(=O)(=O)c1nc(Cl)c(Cl)c(C#N)c1Cl	2.25 µM (inactive)	1.32 µM (inactive)	17.5 µM (inactive)	2.25 µM (inactive)	6.27 µM (inactive)	3.18 µM (inactive)	0.322 µM (active)	4.48 µM (inactive)	2.6 µM (inactive)	5.12 µM (inactive)	2.3 µM (inactive)	1.91 µM (inactive)	0.859 µM (active)	0.736 µM (active)	2.12 µM (inactive)	4.9 µM (inactive)	4.39 µM (inactive)	2.32 µM (inactive)	1.96 µM (inactive)	1.15 µM (inactive)
COc1cc(OC)nc(NC(=O)NS(=O)(=O)c2cccc3ncn(C)c(=O)c23)n1	> 100 µM (inactive)	> 100 µM (inactive)	> 100 µM (inactive)	> 100 µM (inactive)	> 100 µM (inactive)	> 100 µM (inactive)	> 100 µM (inactive)	> 100 µM (inactive)	> 100 µM (inactive)	> 100 µM (inactive)	> 100 µM (inactive)	> 100 µM (inactive)	> 100 µM (inactive)	> 100 µM (inactive)	–	> 100 µM (inactive)	> 100 µM (inactive)	> 100 µM (inactive)	> 100 µM (inactive)	> 100 µM (inactive)
CC(=O)O[C@H]1CC2C(C3CC[C@H](C(C)CCC(N)=O)[C@]31C)[C@H](OC(C)=O)C[C@@H]1CC3(CC[C@]21C)OOC1(CCC(C)CC1)OO3 (some centres not stated)	1.94 µM (inactive) and 2.26 µM (inactive)	1.74 µM (inactive) and 2.23 µM (inactive)	11.7 µM (inactive) and 14.3 µM (inactive)	2.55 µM (inactive) and 1.65 µM (inactive)	–	1.95 µM (inactive) and 2.72 µM (inactive)	1.4 µM (inactive) and 1.71 µM (inactive)	1.9 µM (inactive) and 2.7 µM (inactive)	1.8 µM (inactive)	1.74 µM (inactive) and 2.96 µM (inactive)	2.12 µM (inactive) and 2.53 µM (inactive)	1.56 µM (inactive)	2.48 µM (inactive) and 3.99 µM (inactive)	867 nM (active) and 1.47 µM (inactive)	–	1.66 µM (inactive)	2.09 µM (inactive) and 2.04 µM (inactive)	1.61 µM (inactive) and 1.5 µM (inactive)	1.32 µM (inactive) and 1.48 µM (inactive)	2.32 µM (inactive) and 2.93 µM (inactive)
Cc1cn(CC2=NCCN2)c(=O)[nH]c1=O	> 100 µM (inactive)	> 100 µM (inactive)	> 100 µM (inactive)	> 100 µM (inactive)	> 100 µM (inactive)	> 100 µM (inactive)	> 100 µM (inactive)	–	> 100 µM (inactive)	> 100 µM (inactive)	> 100 µM (inactive)	> 100 µM (inactive)	> 100 µM (inactive)	> 100 µM (inactive)	> 100 µM (inactive)	> 100 µM (inactive)	> 100 µM (inactive)	> 100 µM (inactive)	> 100 µM (inactive)	> 100 µM (inactive)
N#C/N=C1/c2ccccc2/C(=N/C#N)c2cc(CO)ccc21	29.2 µM (inactive)	27.1 µM (inactive)	23.5 µM (inactive)	28.5 µM (inactive)	27.7 µM (inactive)	27.3 µM (inactive)	39 µM (inactive)	51.2 µM (inactive)	24.7 µM (inactive)	27 µM (inactive)	–	30.2 µM (inactive)	23.3 µM (inactive)	17 µM (inactive)	43 µM (inactive)	34.4 µM (inactive)	50.9 µM (inactive)	2.95 µM (inactive)	48.1 µM (inactive)	21.6 µM (inactive)
CCOC(=O)C1=C(C)N(Cc2ccc(Cl)cc2Cl)C2(O)C=CC(=O)C3C(=O)N(c4ccccc4)C(=O)C132 (configuration not stated)	3.11 µM (inactive)	1.63 µM (inactive)	4.57 µM (inactive)	2.29 µM (inactive)	1.89 µM (inactive)	2.72 µM (inactive)	1.72 µM (inactive)	2.23 µM (inactive)	1.71 µM (inactive)	2.09 µM (inactive)	2.09 µM (inactive)	2.07 µM (inactive)	0.659 µM (active)	0.51 µM (active)	1.59 µM (inactive)	1.67 µM (inactive)	3.17 µM (inactive)	0.308 µM (active)	1.51 µM (inactive)	1.46 µM (inactive)
CSc1c(C(N)=S)c(N)nn1-c1ccccc1	> 100 µM (inactive)	> 100 µM (inactive)	> 100 µM (inactive)	> 100 µM (inactive)	> 100 µM (inactive)	> 100 µM (inactive)	> 100 µM (inactive)	> 100 µM (inactive)	–	> 100 µM (inactive)	> 100 µM (inactive)	> 100 µM (inactive)	> 100 µM (inactive)	> 100 µM (inactive)	> 100 µM (inactive)	> 100 µM (inactive)	> 100 µM (inactive)	> 100 µM (inactive)	> 100 µM (inactive)	> 100 µM (inactive)
CCCCCCCC(=O)NS(=O)(=O)c1ccccc1	> 100 µM (inactive)	> 100 µM (inactive)	> 100 µM (inactive)	> 100 µM (inactive)	> 100 µM (inactive)	> 100 µM (inactive)	73.3 µM (inactive)	> 100 µM (inactive)	> 100 µM (inactive)	> 100 µM (inactive)	> 100 µM (inactive)	> 100 µM (inactive)	> 100 µM (inactive)	> 100 µM (inactive)	> 100 µM (inactive)	> 100 µM (inactive)	–	> 100 µM (inactive)	> 100 µM (inactive)	> 100 µM (inactive)
